In paper PMC9705435, “Thiocarbazate building blocks enable the construction of azapeptides for rapid development of therapeutic candidates” (Nature Communications, 2022):
Values joined by “and” are separate entries in the source; they are usually repeats but may differ in a detail not shown here. Identical values can stand only once. Blank lines part the entries; values can stand above or below the compound they belong to. Numbered stars: 1 amine (or outer) side, 2 acyl side, 3 side chain; on linkers, the order of the positions; unused ones are H or OH. Square brackets hold non-standard residues; d marks the D form. Peptide text beside a SMILES is read from it. * marks the point of attachment. azaPhe = O=C(N(Cc1ccccc1)N[*:1])[*:2]; azaPro = O=C(N1CCCN1[*:1])[*:2]; X1 = N=C(N)NCCCN(N)C(=O)*; azaGly = NNC(=O)O

Key:
[1] = in vitro; settings: male, C57BL/6J, mouse, blood
[2] = target: T1, 3T3 cells (Mus musculus, UniProt P32299); assay: PGE2 induction in 3T3 fibroblasts (ELISA); assay type: cell-based; settings: 7 min, serum-free medium
T1 sequence (P32299 1-392): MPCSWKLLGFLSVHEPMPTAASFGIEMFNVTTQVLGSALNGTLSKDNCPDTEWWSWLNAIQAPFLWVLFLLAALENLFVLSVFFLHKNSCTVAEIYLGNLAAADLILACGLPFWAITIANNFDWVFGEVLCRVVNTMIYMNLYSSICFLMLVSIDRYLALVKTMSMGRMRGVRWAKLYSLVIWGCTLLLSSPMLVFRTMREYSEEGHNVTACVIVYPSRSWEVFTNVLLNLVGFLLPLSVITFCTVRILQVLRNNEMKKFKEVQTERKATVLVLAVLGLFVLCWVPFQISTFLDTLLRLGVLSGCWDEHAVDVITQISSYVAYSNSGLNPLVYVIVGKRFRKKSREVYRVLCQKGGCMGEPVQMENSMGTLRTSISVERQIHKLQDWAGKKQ
Protocol: Subconfluent monolayers of 3T3 cells were incubated with test compounds for 7 min in serum-free medium and supernatants were collected and analyzed for PGE2 by ELISA.
5.1 In vitro PGE2 induction
3T3 Swiss Albino cell line (ATCC CCL-92) was purchased from American Type Culture Collection (Manassas, VA).
Following trypsinization, cells were washed and resuspended in DMEM-Complete at a cell density of 0.03 x 10^6 cells per ml. Cells were seeded into 96 -well flat-bottomed culture plates (6 x 10^3 cells per well in 200 µl). After one day of culture, 3T3 cell monolayers were washed two times in pre-warmed DMEM supplemented with 20 mM HEPES (DMEM-HEPES) and DMEM-HEPES
supernatants were collected and immediately frozen at -20°C for future PGE2 analyses. PGE2 levels in supernatants were determined using PGE2 ELISA kit (Enzo Life Sciences, Farmingdale, NY) following manufacturer’s instructions. Samples were assayed in quadruplicate. PGE2 ELISA data were analyzed using GraphPad Prism Version 9.3.1.

[3] = target: T2, Human B2 (h) receptor (B2R) (Homo sapiens, UniProt P30411); assay: Human B2 (h) (agonist radioligand) receptor binding assay, [3H]bradykinin displacement
T2 construct: host or cells: CHO cells
T2 sequence (P30411 1-391): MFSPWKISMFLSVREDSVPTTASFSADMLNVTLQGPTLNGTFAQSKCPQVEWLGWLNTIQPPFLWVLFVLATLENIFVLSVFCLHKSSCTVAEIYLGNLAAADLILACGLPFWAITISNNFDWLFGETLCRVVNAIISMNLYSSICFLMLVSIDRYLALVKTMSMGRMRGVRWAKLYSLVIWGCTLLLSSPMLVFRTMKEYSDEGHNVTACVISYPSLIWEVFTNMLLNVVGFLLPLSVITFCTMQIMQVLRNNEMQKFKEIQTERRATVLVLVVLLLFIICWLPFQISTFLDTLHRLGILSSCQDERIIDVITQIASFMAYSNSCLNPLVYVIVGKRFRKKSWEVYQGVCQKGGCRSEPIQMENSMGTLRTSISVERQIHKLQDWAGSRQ
Text: The data was collected by CRO Eurofins Cerep (France) and the result is attached as an additional data file. B2R radioligand agonist binding displacement assay for determination of IC-50.
Test compounds (FI-U / [azaP2, azaF8-BK (70), FI-2V / azaF8-BK (68), and FI-8G / azaP2-BK (63)) were supplied to Eurofins in a blinded manner and run at five concentrations to determine the IC-50’s. Standard company control test compounds were used for assay validation. Experimental assays achieved inhibition of more than 50% and were considered to represent significant effects of the test compounds.
(B2(h)) was used as the agonist for B2R receptor binding. The results are expressed as a percent of control specific binding (measured specific binding /control specific binding)*100, and as a percent inhibition of control specific binding (100 minus (measured specific binding/ control specific binding)*100) obtained in the presence of the test compounds. The IC50 values (concentration causing a half-maximal inhibition of control specific binding) and Hill coefficients (nH) were determined by non-linear regression analysis of the competition curves generated with mean replicate values using Hill equation curve fitting Y=D+[ A-D / 1+(C/C50) nH] where Y = specific binding, A = left asymptote of the curve, D = right asymptote of the curve, C = compound concentration, C50 = IC50, and nH = slope factor. This analysis was performed using software developed at Cerep (Hill software) and validated by comparison with data generated by the commercial software SigmaPlot® 4.0 for […]
The inhibition constants (Ki) were calculated using the Cheng Prusoff equation. Ki=IC50/(1+L/Kd) where L = concentration of radioligand in the assay, and Kd = affinity of the radioligand for the receptor. A scatchard plot is used to determine the Kd. […]
9.1. Experimental Conditions
9.1.1. In Vitro Pharmacology: Binding Assays
Assay Source Ligand Conc. Kd Non Specific Incubation Detection Bibl.
(agonist recombinant (1 µM) RT counting
9.2. Analysis and expression of results
9.2.1. In Vitro Pharmacology: Binding Assays
The results are expressed as a percent of control specific binding measured specific binding *100 […]
and as a percent inhibition of control specific binding
100-( measured specific binding *100) […]
obtained in the presence of the test compounds.
The IC50 values (concentration causing a half-maximal inhibition of control specific binding) and Hill coefficients (nH) were determined by non-linear regression analysis of the competition curves generated with mean replicate values using Hill equation […]
where Y = specific binding, A = left asymptote of the curve, D = right asymptote of the curve, C = compound concentration, C50 = IC50, and nH = slope factor. This analysis was performed using software developed at Cerep (Hill software) and validated by […]
The inhibition constants (Ki ) were calculated using the Cheng Prusoff equation where L = concentration of radioligand in the assay, and KD = affinity of the radioligand for the receptor. A scatchard plot is used to […]

[4] = target: T3, HMGB1/MD-2 binding (Homo sapiens, UniProt Q9Y6Y9); assay: SPR HMGB1/MD-2 binding inhibition assay; settings: immobilized disulfide HMGB1, MD-2 0.25 µM
T3 construct: purchased R&D Systems 1787-MD
T3 sequence (Q9Y6Y9 17-160 limits assumed): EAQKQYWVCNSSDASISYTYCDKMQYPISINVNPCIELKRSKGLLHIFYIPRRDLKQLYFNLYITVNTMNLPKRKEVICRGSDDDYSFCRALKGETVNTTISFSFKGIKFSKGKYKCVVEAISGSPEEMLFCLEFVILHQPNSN

Compound: N=C(N)NCCC[C@H](NC(=O)[C@H](Cc1ccccc1)NC(=O)N1CCCN1C(=O)[C@H](CO)NC(=O)[C@H](Cc1ccccc1)NC(=O)CNC(=O)[C@@H]1CCCN1C(=O)[C@@H]1CCCN1C(=O)[C@@H](N)CCCNC(=N)N)C(=O)O [Compound 67, RPPGFSazaP^7FR] (H-RPPGFS[azaPro]FR-OH)
half-life [1]: 2.38 ± 0.03 min

Compound: NC(N)=NCCC[C@H](NC(=O)[C@H](Cc1ccccc1)NC(=O)[C@@H]1CCCN1C(=O)[C@H](CO)NC(=O)[C@H](Cc1ccccc1)NC(=O)CNC(=O)[C@@H]1CCCN1C(=O)[C@@H]1CCCN1C(=O)[C@@H](N)CCCN=C(N)N)C(=O)O [Bradykinin, reference compound] (H-RPPGFSPFR-OH)
EC50 [2]: 0.0444 µM
half-life [1]: 5.29 ± 0.5 min

Compound: N=C(N)NCCC[C@@H](N)C(=O)N[C@@H](CCCNC(=N)N)C(=O)N1CCC[C@H]1C(=O)N1C[C@H](O)C[C@H]1C(=O)NCC(=O)N[C@@H](Cc1ccccc1)C(=O)N[C@@H](CO)C(=O)N[C@H](Cc1ccccc1)C(=O)N[C@@H](Cc1ccccc1)C(=O)N[C@@H](CCCNC(=N)N)C(=O)O [NPC 567, reference compound]
nH (Hill coefficient) ([3]; Eurofins Cerep report): 0.6 and 0.9

Compound: NN(Cc1ccccc1)C(=O)N[C@@H](CO)C(=O)N[C@@H](CO)C(=O)N[C@@H](CCC(=O)O)C(=O)O [Compound 54, azaF^1SSE-OH]
IC50 [4]: 0.127 µM
half-life [1]: > 120 min

Compound: N=C(N)NCCC[C@H](NC(=O)[C@H](Cc1ccccc1)NC(=O)[C@@H]1CCCN1C(=O)[C@H](CO)NC(=O)[C@H](Cc1ccccc1)NC(=O)CNC(=O)[C@@H]1CCCN1C(=O)N1CCCN1C(=O)[C@@H](N)CCCNC(=N)N)C(=O)O [Compound 63, RazaP^2PGFSPFR] (H-R[azaPro]PGFSPFR-OH; N-terminus and C-terminus assumed)
IC50 [3]: 0.0079 µM
Ki [3]: 0.0045 µM
% Inhibition of Control Specific Binding, 1st ([3]; 1.0E-06 M): 98.9%
% Inhibition of Control Specific Binding, 2nd ([3]; 1.0E-06 M): 98.6%
% Inhibition of Control Specific Binding, Mean ([3]; 1.0E-06 M): 98.8%
% Inhibition of Control Specific Binding, 1st ([3]; 1.0E-07 M): 94.6%
% Inhibition of Control Specific Binding, 2nd ([3]; 1.0E-07 M): 95.1%
% Inhibition of Control Specific Binding, Mean ([3]; 1.0E-07 M): 94.9%
% Inhibition of Control Specific Binding, 1st ([3]; 1.0E-08 M): 58.5%
% Inhibition of Control Specific Binding, 2nd ([3]; 1.0E-08 M): 56.4%
% Inhibition of Control Specific Binding, Mean ([3]; 1.0E-08 M): 57.4%
% Inhibition of Control Specific Binding, 1st ([3]; 1.0E-09 M): 0.2%
% Inhibition of Control Specific Binding, 2nd ([3]; 1.0E-09 M): -3.4%
% Inhibition of Control Specific Binding, Mean ([3]; 1.0E-09 M): -1.6%
% Inhibition of Control Specific Binding, 1st ([3]; 3.0E-08 M): 86.3%
% Inhibition of Control Specific Binding, 2nd ([3]; 3.0E-08 M): 63.9%
% Inhibition of Control Specific Binding, Mean ([3]; 3.0E-08 M): 75.1%
EC50 [2]: 0.0611 µM
half-life [1]: 5.4 ± 1.1 min

Compound: NC(=O)CCN(NC(=O)[C@H](CO)NC(=O)[C@H](CO)NC(=O)N(N)Cc1ccccc1)C(N)=O [Compound 57, azaF^1SSazaQ^4-NH2]
IC50 [4]: 0.083 µM
half-life [1]: > 120 min

Compound: N=C(N)NCCC[C@H](NC(=O)[C@H](Cc1ccccc1)NC(=O)[C@@H]1CCCN1C(=O)[C@H](CO)NC(=O)[C@H](Cc1ccccc1)NC(=O)CNC(=O)[C@@H]1CCCN1C(=O)[C@@H]1CCCN1C(=O)N(N)CCCNC(=N)N)C(=O)O [Compound 62] (X1-PPGFSPFR-OH)
half-life [1]: 2.46 ± 0.05 min

IC50 [4]: 0.423 µM
half-life ([1]; Ex-vivo stability t 1/2): 2.9 ± 0.2 min
Compound: NC(=O)CCN(NC(=O)[C@H](CO)NC(=O)[C@H](CO)NC(=O)[C@@H](N)Cc1ccccc1)C(N)=O [Compound 58, FSSazaQ^4-NH2]

Compound: N=C(N)NCCC[C@H](NC(=O)[C@H](Cc1ccccc1)NC(=O)[C@@H]1CCCN1C(=O)[C@H](CO)NC(=O)N(Cc1ccccc1)NC(=O)CNC(=O)[C@@H]1CCCN1C(=O)[C@@H]1CCCN1C(=O)[C@@H](N)CCCNC(=N)N)C(=O)O [Compound 66, RPPGazaF^5SPFR] (H-RPPG[azaPhe]SPFR-OH; N-terminus and C-terminus assumed)
half-life [1]: 14.7 ± 1.6 min

IC50 [4]: 0.397 µM
half-life ([1]; Ex-vivo stability t 1/2): 2.6 ± 0.11 min
Compound: NC(=O)N(CCC(=O)O)NC(=O)[C@H](CO)NC(=O)[C@H](CO)NC(=O)[C@@H](N)Cc1ccccc1 [Compound 53, FSSazaE^4-NH2]

Compound: NC(=O)[C@H](CCC(=O)O)NC(=O)[C@H](CO)NC(=O)[C@H](CO)NC(=O)N(N)Cc1ccccc1 [Compound 52, azaF^1SSE-NH2]
IC50 [4]: 0.249 µM
half-life [1]: > 120 min

Compound: N=C(N)NCCC[C@H](NC(=O)[C@H](Cc1ccccc1)NC(=O)[C@@H]1CCCN1C(=O)[C@H](CO)NC(=O)[C@H](Cc1ccccc1)NC(=O)CNC(=O)N1CCCN1C(=O)[C@@H]1CCCN1C(=O)[C@@H](N)CCCNC(=N)N)C(=O)O [Compound 64, RPazaP^3GFSPFR]
half-life [1]: 2.63 ± 0.25 min

Compound: NC(=O)CC[C@H](NC(=O)[C@H](CO)NC(=O)[C@H](CO)NC(=O)N(N)Cc1ccccc1)C(N)=O [Compound 56, azaF^1SSQ-NH2]
IC50 [4]: 0.349 µM
half-life [1]: > 120 min

Compound: N=C(N)NCCC[C@H](NC(=O)[C@H](Cc1ccccc1)NC(=O)[C@@H]1CCCN1C(=O)[C@H](CO)NC(=O)[C@H](Cc1ccccc1)NC(=O)NNC(=O)[C@@H]1CCCN1C(=O)[C@@H]1CCCN1C(=O)[C@@H](N)CCCNC(=N)N)C(=O)O [Compound 65, RPPazaG^4FSPFR] (H-RPP[azaGly]FSPFR-OH; N-terminus and C-terminus assumed)
half-life [1]: 4.33 ± 1.3 min

Compound: NC(=O)CC[C@H](NC(=O)[C@H](CO)NC(=O)[C@H](CO)NC(=O)N(N)Cc1ccccc1)C(=O)O [Compound 55, azaF^1SSQ-OH]
IC50 [4]: 0.159 µM
half-life [1]: 24.4 ± 1.6 min

Compound: N=C(N)NCCC[C@H](N)C(=O)N1CCC[C@H]1C(=O)N1CCC[C@H]1C(=O)NCC(=O)N[C@@H](Cc1ccccc1)C(=O)N[C@@H](CO)C(=O)N1CCC[C@H]1C(=O)N[C@@H](Cc1ccccc1)C(=O)NN(CCCNC(=N)N)C(=O)O [Compound 69]
half-life [1]: 42.6 ± 0.8 min

Compound: N=C(N)NCCC[C@H](NC(=O)N(Cc1ccccc1)NC(=O)[C@@H]1CCCN1C(=O)[C@H](CO)NC(=O)N(Cc1ccccc1)NC(=O)CNC(=O)[C@@H]1CCCN1C(=O)[C@@H]1CCCN1C(=O)[C@@H](N)CCCNC(=N)N)C(=O)O [Compound 71, RPPGazaF^5SPazaF^8R] (H-RPPG[azaPhe]SP[azaPhe]R-OH; N-terminus and C-terminus assumed)
half-life [1]: 106 ± 1.8 min
